Values after ≈ are worked out from the molar mass of the structure shown.
Legend:
Format in all cases: physicochemical
[1] = Intrinsic aqueous solubility; settings: desirable physiological pH range
From the text: Therefore, it was necessary to formulate the compound in such a way to get the desired solubility at a physiological pH and maintain stability prior to administration.

[2] = Effect of pH on stability, 16.7% v/v ethanol:0.1M citrate buffers; settings: 0.2 mg drug/mL, 2 days at 85° C.
Method: (§1) The effect of pH on the drug substance stability was also studied. The buffer pH providing maximum stability was determined by comparing the stability of prototype formulations of the drug substance. […] Relative area percents of drug peaks were evaluated following 2 days storage at 85° C. […] Subsequent experiments evaluated stability (1 mg drug/mL) in 75% v/v ethanol:0.01M tartrate buffer. Three mL aliquots of samples were dispensed into 5 cc Type I glass vials and closed with West 4405/50 20 mm stoppers. Percent drug substance remaining, impurities and degradants were evaluated following 18 days storage at 50° C. and compared to initial values.

[3] = Effect of pH on stability, 75% v/v ethanol:0.01M tartrate buffer; settings: 18 days at 50° C.
Method: as §1

[4] = Solubility in solutions of dehydrated alcohol and POE castor oil; settings: Dehydrated Alcohol 7.50% v/v, POE Castor Oil 4% v/v
Method: However, this solution cannot be injected directly into patients as the non-aqueous components exceed 20%, thus potentially causing irritation at the injection site. […] It has been shown that the precipitation can be avoided by inclusion of a co-solvent such as polyoxyethylated (POE) castor oil in the formulation. Subsequently, solubility of the drug substance was determined in solutions containing various amounts of dehydrated alcohol and POE castor oil. Approximately 20 mg of drug was added to 3 mL aliquots of the solutions shown below in Table III. Samples were stirred for 16 hours, filtered trough 0.45 micron nylon syringe filters and analyzed by HPLC for drug concentration.

[5] = Dilution of 15 mg/mL ethanol/tartrate solution with aqueous diluents; settings: 15 mg/mL in 75% ethanol/10 mM tartrate buffer diluted with 0.9% sodium chloride injection or 5% dextrose injection
[6] = Stability in solution containing ethanol and POE castor oil at 50° C.
From the text: However, as shown below in Table IV, drug degradation occurs in a solution containing ethanol and POE castor oil due to peroxide impurities present in POE castor oil. […] As shown below, the stability of the solution containing POE castor oil was much lower than the injection solution without the co-solvent.

[7] = Stability of antioxidant formulation at 25° C. for 4 months; settings: for Appearance / Potency / pH: formulation with 0.1% each of three antioxidants
Method: A formulation containing 1.5 mg/mL of Compound 1a, 0.075 mL/mL of ethanol, 0.04 mL/mL of POE castor oil in a tartrate buffer and containing 0.1% each of sodium formaldehyde sulfoxylate, L-cysteine HCl and ascorbic acid was prepared. Samples were placed on stability at 25° C. for 4 months. […] Additionally, there were no changes in potency or total oxidative degradants for the samples.

[8] = during 4 months of storage at 25° C.

ionization [1]: does not ionize
buffer pH of best stability [2]: 4.5
apparent pH of most stable solution [3]: 5.4
tartrate buffer pH of most stable solution [3]: 3.8
Solubility [4]: 2.38 mg/mL (≈ 2600 µM)
effect of aqueous dilution [5]: drug precipitation
Total Impurities ([6]; 6 days @ 50° C.): 10.9 area %
Total Impurities ([6]; 16 days @ 50° C.): 16.5 area %
Total Impurities ([6]; Initial): 2.1 area %
changes in appearance or pH [7, 8]: no significant changes
changes in potency or total oxidative degradants [7, 8]: no changes
Appearance ([7]; 2 Month at 25° C.): Clear, colorless
Potency ([7]; 2 Month at 25° C.): 1.46 mg/mL (≈ 1600 µM)
pH ([7]; 2 Month at 25° C.): 3.56
Appearance ([7]; 4 Month at 25° C.): Clear, colorless
Potency ([7]; 4 Month at 25° C.): 1.48 mg/mL (≈ 1620 µM)
pH ([7]; 4 Month at 25° C.): 3.57
Appearance ([7]; Initial): Clear, colorless
Potency ([7]; Initial): 1.44 mg/mL (≈ 1580 µM)
pH ([7]; Initial): 3.71
SMILES: CSCO[C@H]1C[C@H]2OC[C@@]2(OC(C)=O)[C@H]2[C@H](OC(=O)c3ccccc3)[C@]3(O)C[C@H](OC(=O)[C@H](O)[C@@H](NC(=O)c4ccccc4)c4ccccc4)C(C)=C([C@@H](OC(C)=O)C(=O)[C@]12C)C3(C)C [Compound Ia, 7-O-methylthiomethylpaclitaxel]

Reference: US20050054716A1, “Pharmaceutical compositions and methods of using taxane derivatives” (priority 2002, published 2005)
